PubChem BioAssay AID1241 (SRMLSC, 2008)

Experiment: compounds inducing NF-kB luciferase expression – cell-based, SH-SY5Y, dose response (AID 1241)
Conditions: SH-SY5Y NF-kB promoter luciferase reporter, fold induction; call rule not given here

EC50, active:
COc1ccc(-c2nnc(-c3ccc(N)cc3)o2)cc1 2120 nM, CCN(CC)c1ccc(N=Nc2nn(C)c(C)c2[N+](=O)[O-])cc1 8190 nM, COc1cccc(N(C(=O)c2nc3nccc(C)n3n2)c2nc3ccccc3s2)c1 7220 nM, C=CCN=c1scc(-c2ccccc2)n1/N=C/c1ccccn1 1460 nM, COc1ccc(C(=O)Nc2cccc(C)c2)cc1 6190 nM, O=C(Nc1ccc(N2CCOCC2)c(Cl)c1)c1cccc(F)c1 8600 nM, Cn1cccc1/C=C1\CCC/C(=C\c2cccn2C)C1=O 8630 nM, Cc1nn2cc(-c3ccccc3)nc2s1 2030 nM, CC(C)(C)C(=O)Nc1nc(-c2ccccc2)ns1 2730 nM, O=C(c1ccccc1)c1cnc(Nc2ccccc2Cl)s1 7970 nM, O=C(c1cnn(-c2ccccc2)c1)c1ccccc1O 1700 nM, CSc1ccc(/C=C/C(=O)Nc2ccccc2)cc1 242 nM, Cc1ccc(C(=O)COC(=O)c2cccs2)cc1 2450 nM, CCC(=O)NC(=Nc1nc2ccccc2s1)NC(=O)CC 4450 nM, COc1ccc2c(c1)CC/C2=N\OC(=O)c1cccc(C)c1 2060 nM, Fc1ccccc1Nc1nc2c(s1)CCc1ccccc1-2 3360 nM, CSc1ccccc1-c1nnc(-c2ccccc2)o1 3700 nM, C=CCNc1oc(/C=C/c2ccccc2)nc1C#N 27000 nM, CC(C)c1ccc(/C=C/C(=O)Nc2nncs2)cc1 4500 nM, NS(=O)(=O)c1cc(C(=O)OCC(=O)c2ccc3c(c2)OCCO3)ccc1Cl 3470 nM, COc1cccc(/C=N/Nc2nccnc2Cl)c1O 2170 nM, Cc1cc(/C=C(\C#N)C(=O)Nc2ccccc2F)c(C)[nH]1 28700 nM, O=C(Nc1ccc2ccccc2c1)c1onc2c1CCCC2 632 nM, Clc1ccc2nc(N3CCCCC3)[nH]c2c1 7790 nM, CCc1sc(C(=O)N2CCc3ccccc32)cc1C 1690 nM, COc1ccc(-c2csc(Nc3ncccc3C)n2)cc1 1650 nM, COc1cc(OC)cc(-c2nc3cc(C)ccc3o2)c1 29300 nM, COc1ccc(-c2cc(=O)c3ccccc3s2)cc1 2060 nM, COC(=O)CSc1nc2cc(C)ccc2cc1C#N 6530 nM, C=CCSc1nnc(-c2ccc(Cl)cc2Cl)o1 4370 nM, CC(=O)Nc1cccc(-c2csc(Nc3cccc(C)n3)n2)c1 1630 nM, Cc1cccnc1NCc1ccc(O)c2ncccc12 7650 nM, COc1cccc(NC(=O)C(=S)NC2CCCCC2)c1 4220 nM, c1ccc(Cn2ccc(-c3cnc(-c4ccccc4)s3)n2)cc1 2240 nM, COc1ccc(-c2cc(-c3ccccc3O)[nH]n2)cc1OC 2440 nM, CCc1ccc(NC(=O)c2cnn(-c3ccccc3)c2C)cc1 2560 nM, O=C(/C=C/Nc1ccc(F)c(F)c1)c1cccs1 963 nM, CCCOc1ccc(C(=O)Nc2ccc(Cl)cn2)cc1 1090 nM, c1ccc(-c2ccc(-c3nc(-c4ccncc4)no3)cc2)cc1 636 nM, Cc1ccc(C(=O)/C=C/Nc2cccc(O)c2)cc1 559 nM, Clc1ccc(Nc2nc(-c3cccs3)cs2)nc1 686 nM, O=C1CCOc2cc(OCc3ccccc3)ccc21 824 nM, O=C(N/N=C/c1cccc(F)c1)c1csc2c1CCCC2 21900 nM, Nc1nn(-c2ccccc2)c(N)c1N=Nc1ccccc1F 1010 nM, O=c1[nH]c(/C=C2\C=Nc3ccccc32)c(O)n1Cc1ccccc1F 2540 nM, Fc1ccccc1-c1nc(-c2ccccc2)no1 4000 nM, CCCCOC(=O)Nc1nc2ccccc2s1 3470 nM, Oc1c(-c2cc(-c3ccco3)[nH]n2)ccc2ccccc12 5560 nM, CCCOc1ccc(C(=O)NCCc2ccccc2)cc1 648 nM, COC(=O)c1ccc(/C=C(\C#N)c2ccccn2)cc1 25100 nM, O=C(NC1=NCCS1)c1csc2ccccc12 17300 nM, Cn1cccc1/C=C1\CCc2ccccc2C1=O 1630 nM, CCN(CC)c1ccc(NC(=O)c2ccccc2F)cc1 7390 nM, Cn1c(C(=O)Nc2ccc3c(c2)OCO3)cc2sccc21 5240 nM, CCc1ccc(-c2cc(N)n(-c3ccccc3)n2)cc1 16400 nM, CC(C)CC(=O)Nc1ccc2nn(-c3ccccc3)nc2c1 5700 nM, COc1cccc(-c2noc(-c3ccc4c(c3)OCO4)n2)c1 506 nM, O=C(Nc1ccccc1O)c1ccc(NS(=O)(=O)c2cccc3cccnc23)cc1 21900 nM, CCN(CC)c1ccc(NC(=O)c2ccco2)cc1 2500 nM, O=C(Nc1cccc(O)c1)c1noc2c1CCc1ccccc1-2 426 nM, O=C(Nc1nc2c(s1)CCCC2)c1ccc(Br)o1 1290 nM, O=C(Nc1ccc(Cl)cc1Cl)C1=Cc2ccccc2OC1 8040 nM, CCOc1ccc2nc(NC(=S)N(C)C)sc2c1 17300 nM, CCOC(=O)/C(=C\c1ccccc1)C(=O)c1cc(C(C)=O)c(Nc2ccccc2)s1 17400 nM, c1ccc2oc(-c3csc(N4CCOCC4)n3)cc2c1 966 nM, c1ccc2c(c1)CCN(c1nc3cc4c(cc3s1)OCO4)C2 524 nM, COc1ccccc1Oc1ccc(N/C=C/C(=O)c2ccco2)cc1 7130 nM, O=C(Nc1ccc2c(c1)OCCO2)Nc1ccc2c(c1)OCO2 114 nM, Cc1ccc(NCc2nc3ccccc3n2C)cc1 3360 nM, O=C(Nc1ccc(Cl)cc1)c1ccc2c(c1)OCO2 2750 nM, N/C(=N\OC(=O)c1cc(Br)ccc1Cl)c1ccccn1 2220 nM, O=C(Nc1ccc2c(c1)OCO2)c1ccc(Br)s1 4220 nM, CCn1cnc2cc(NCc3nc4ccccc4n3C)ccc21 1420 nM, Cc1sc(NC(=O)c2ccc(Cl)s2)c(C(N)=O)c1C 1700 nM, Cc1ccc(/C=N/Nc2nc3ccccc3s2)o1 790 nM, CC(C)(C)C(=O)Nc1nc(-c2ccc3c(c2)OCO3)cs1 2660 nM, CC(C)N=C1NN=C(c2ccc(Cl)c(Cl)c2)CS1 1420 nM, CCc1ccc(NC(=O)c2cc(C)on2)cc1 2860 nM, COc1cc(/C=N/O)ccc1OCc1ccccc1Cl 12100 nM, Cc1ccc(N/N=C(\C#N)C(=N)N2CCCCCC2)cc1 1850 nM, N#C/C(=C/c1ccco1)c1nc2ccccc2s1 1970 nM, O=C(O)c1ccc(N/N=C/c2cn(-c3ccccc3)nc2-c2cccs2)cc1 1700 nM, Cc1ccc2nc(-c3ccc(NC(=O)CNC4CC4)cc3)sc2c1 1690 nM, Clc1ccc(CSc2nc3ccncc3[nH]2)cc1 6940 nM, CC(C)c1ccc(NC(=O)NC2CCCCC2)cc1 8150 nM, CC(/C=N/NC(=O)c1cccs1)=C\c1ccccc1 2310 nM, CCOC(=O)c1c(N)sc(C(=O)Nc2ccccc2)c1C 1930 nM, COc1cccc(C(=O)/C=C/Nc2cc(C)ccc2O)c1 5510 nM, O=C(Nc1ccc2c(c1)OCCO2)c1cc2ccccc2o1 1120 nM, Cc1cccc(/C=C/c2nc3ccccc3c(=O)[nH]2)c1 829 nM, Nc1nn(-c2cccc(F)n2)cc1-c1ccc(Cl)cc1 675 nM, Cc1csc(NC(=O)c2ccc(C)c([N+](=O)[O-])c2)n1 2120 nM, CC(=O)Nc1cccc(-c2csc(Nc3ccc(C)cn3)n2)c1 702 nM, CC1=NC(=O)C(N=Nc2cccc(C(=O)O)c2)N1c1ccccc1 (stereo not given) 781 nM, Clc1c(CSc2nc3ccccc3o2)nc2sccn12 2410 nM, O=C(Nc1ccc(N2CCCC2)c(Cl)c1)c1cccs1 1510 nM, O=C(/C=C/c1ccc(Cl)cc1)Nc1nccs1 793 nM, O=[N+]([O-])c1ccccc1OCc1nc(-c2cccs2)no1 1720 nM, COc1cc(/C=N/Nc2nc3ccccc3s2)ccc1OC(=O)c1ccccc1F 1420 nM, Cc1ccc(/C=C/c2nc3ccccc3[nH]2)o1 2060 nM, Cc1ccc(/C=C2\OC(=O)c3ccccc32)cc1 6030 nM, Cc1ccc(N2Cc3ccccc3C2=S)cc1 5150 nM, Oc1ccc(-c2csc(Nc3ncccn3)n2)cc1 3440 nM, Cc1ccccc1/C=C1\CCCc2ccccc2C1=O 24900 nM, Cc1ccc(C(=O)/C=C/Nc2ccccc2C(N)=O)cc1 511 nM, O=C(Nc1ccon1)c1cc2c(s1)CCCC2 4130 nM, c1ccc(CSCc2cn3ccsc3n2)cc1 12600 nM, CCOC(=O)Cc1ccc2sc(-c3ccccc3)nc2c1 6450 nM, O=C(C=C1SCCS1)/C=C/c1ccco1 781 nM, COc1ccc(Nc2nc3ccccc3s2)cc1 20400 nM, Fc1ccc(Nc2ccc3ccccc3n2)c(F)c1 698 nM, N#C/C(=N\Nc1cccc(F)c1)C(=N)N1CCCCCC1 1640 nM, COc1cccc(CNc2ccc(Br)cn2)c1O 3900 nM, CCN(CC)c1ccc(C(=O)Nc2cccc(F)c2)cc1 1060 nM, O=C(/C=C/Nc1cccc(O)c1)c1ccccc1 2100 nM, Cc1ccc(-c2nnc(-c3cccs3)o2)cc1 2790 nM, Cc1csc(NC(=O)c2cc3c(s2)CCC3)n1 1050 nM, Cc1ccc2nc(-c3ccc(NC(=O)COC(=O)c4ccc([N+](=O)[O-])o4)cc3)sc2c1 437 nM, C/C(N)=C(/C#N)C(=O)CSc1nnc(-c2ccc3c(c2)OCO3)o1 < 59 nM, Cc1ccc(S(=O)(=O)/N=C(/NC(=S)Nc2ccccc2)c2ccccc2)cc1 23500 nM, COc1cccc(N/C=C/C(=O)c2ccc(Cl)cc2)c1 652 nM, Cc1cccn2cc(-c3ccc(F)cc3)nc12 1860 nM, CN(C)c1ccc(C(=O)c2ccc(N(C)C)c3ccccc23)cc1 221 nM, O=C(/C=C/c1c[nH]c2ccccc12)c1ccccc1 5440 nM, Cc1ccnc(NC(=O)CCCOc2cc(=O)n(C)c3ccccc23)c1 10500 nM, CC(C)CC(=O)N/C(N)=N/c1nc2ccccc2s1 762 nM, Cc1nc(N)sc1N=Nc1ccc(Br)cc1 7000 nM, COC(=O)c1ccc(-c2nc3ccccc3[nH]2)cc1 946 nM, CC(=O)c1cccc(N/C=C\C(=O)c2ccc(C)cc2)c1 904 nM, OCc1cn(-c2ccccc2)nc1-c1cc2ccccc2o1 6680 nM, S=C(Nc1ccccn1)c1ccccn1 2030 nM, COc1ccc2[nH]c3c(c2c1)CCn1c-3nc2ccccc2c1=O 185 nM, Cc1nc2ccc(-c3nc4ccccc4o3)cc2[nH]1 3300 nM, Cc1ccc(Cc2cnc(NC(=O)c3cccs3)s2)cc1 4960 nM, Oc1ccc(CN2CCN(Cc3ccccc3)CC2)c2cccnc12 5240 nM
